This is an account of results in patent US20250230165A1, “HETEROCYCLIC COMPOUNDS FOR USE IN THE TREATMENT OF CANCER” (ARTIOS PHARMA LIMITED, priority 2021, published 2025).

The assay deals with T1, Human Polθ polymerase domain (aa1820-2590) (Homo sapiens, UniProt O75417).
T1 construct: Human Polθ polymerase domain (aa1820-2590) was expressed in E. coli; made in house; host or cells: E. coli
T1 sequence (O75417 1820-2590): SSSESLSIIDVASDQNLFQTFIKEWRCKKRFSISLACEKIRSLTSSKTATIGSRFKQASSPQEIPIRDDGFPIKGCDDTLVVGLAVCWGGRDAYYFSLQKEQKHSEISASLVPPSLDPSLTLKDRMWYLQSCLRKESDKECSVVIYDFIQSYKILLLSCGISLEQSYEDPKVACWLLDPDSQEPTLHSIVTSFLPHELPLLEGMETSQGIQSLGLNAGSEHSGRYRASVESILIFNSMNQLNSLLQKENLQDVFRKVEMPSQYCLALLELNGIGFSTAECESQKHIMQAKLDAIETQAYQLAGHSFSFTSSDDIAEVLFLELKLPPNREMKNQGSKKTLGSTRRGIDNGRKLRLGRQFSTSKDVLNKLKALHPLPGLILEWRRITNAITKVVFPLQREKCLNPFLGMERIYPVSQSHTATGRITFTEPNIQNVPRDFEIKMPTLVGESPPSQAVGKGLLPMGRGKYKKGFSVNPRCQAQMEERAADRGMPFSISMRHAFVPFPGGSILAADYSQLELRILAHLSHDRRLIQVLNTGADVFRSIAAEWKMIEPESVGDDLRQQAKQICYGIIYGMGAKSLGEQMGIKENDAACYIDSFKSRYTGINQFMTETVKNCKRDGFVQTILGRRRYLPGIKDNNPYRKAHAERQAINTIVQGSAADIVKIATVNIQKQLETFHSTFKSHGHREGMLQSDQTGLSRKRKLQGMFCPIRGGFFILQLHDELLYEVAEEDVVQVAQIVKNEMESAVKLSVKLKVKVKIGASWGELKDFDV
As to the kind of experiment: Polθ Polymerase Domain Kinact/KI Assay (PicoGreen). The note with it: 0.8 nM Polθ, 100 nM DNA substrate, kobs vs [I] fit for 2-step covalent inhibitor. It counts as biochemical. Summed up:
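PicoGreen fluorescence read-out of primer extension; progress curves per inhibitor concentration fitted for kobs, then kobs vs [I] fitted to a two-step covalent model to give Kinact and KI. Conditions: 0.8 nM enzyme, 100 nM DNA substrate, […].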
Regarding `C=CC(=O)N1CC(n2cnc(CN3C[C@H]4CC(=O)N(c5cc(C(F)(F)F)cc(C)n5)[C@@H]4C(=O)N(C)c4cccc(F)c43)n2)C1` [Example 123, (3aR,11aS)-5-((1-(1-acryloylazetidin-3-yl)-1H-1,2,4-triazol-3-yl)methyl)-6-fluoro-10-methyl-1-(6-methyl-4-(trifluoromethyl)pyridin-2-yl)-1,3a,4,5,10,11a-hexahydro-2H-benzo[b]pyrrolo[2,3-f][1,4]diazocine-2,11(3H)-dione], the Kinact/Kl came to 270000 M⁻¹ s⁻¹. The figure for `C=CC(=O)N1CCN(c2nc(CN3C[C@H]4CC(=O)N(c5cc(C(F)(F)F)cc(C)n5)[C@@H]4C(=O)N(C)c4cccc(F)c43)co2)CC1` [Example 124, (3aR,11aS)-5-((2-(4-acryloylpiperazin-1-yl)oxazol-4-yl)methyl)-6-fluoro-10-methyl-1-(6-methyl-4-(trifluoromethyl)pyridin-2-yl)-1,3a,4,5,10,11a-hexahydro-2H-benzo[b]pyrrolo[2,3-f][1,4]diazocine-2,11(3H)-dione] is 11000 M⁻¹ s⁻¹; for `C=CC(=O)N1CCN(c2nc(CN3C[C@H]4CC(=O)N(c5cc(C(F)(F)F)cc(C)n5)[C@@H]4C(=O)N(C)c4cccc(F)c43)c[nH]2)CC1` [Example 125, (3aR,11aS)-5-((2-(4-acryloylpiperazin-1-yl)-1H-imidazol-4-yl)methyl)-6-fluoro-10-methyl-1-(6-methyl-4-(trifluoromethyl)pyridin-2-yl)-1,3a,4,5,10,11a-hexahydro-2H-benzo[b]pyrrolo[2,3-f][1,4]diazocine-2,11(3H)-dione] it is 2.53e+06 M⁻¹ s⁻¹; for `C=CC(=O)N1CCC(n2cnc(CN3C[C@H]4CC(=O)N(c5cc(C(F)(F)F)cc(C)n5)[C@@H]4C(=O)N(C)c4cccc(F)c43)n2)CC1` [Example 126, (3aR,11aS)-5-((1-(1-acryloylpiperidin-4-yl)-1H-1,2,4-triazol-3-yl)methyl)-6-fluoro-10-methyl-1-(6-methyl-4-(trifluoromethyl)pyridin-2-yl)-1,3a,4,5,10,11a-hexahydro-2H-benzo[b]pyrrolo[2,3-f][1,4]diazocine-2,11(3H)-dione] it is 460000 M⁻¹ s⁻¹. The figure for `C=CC(=O)N1CC(c2cccc(CN3C[C@H]4CC(=O)N(c5cc(C(F)(F)F)cc(C)n5)[C@@H]4C(=O)N(C)c4cccc(F)c43)c2)C1` [Example 127, (3aR,11aS)-5-(3-(1-acryloylazetidin-3-yl)benzyl)-6-fluoro-10-methyl-1-(6-methyl-4-(trifluoromethyl)pyridin-2-yl)-1,3a,4,5,10,11a-hexahydro-2H-benzo[b]pyrrolo[2,3-f][1,4]diazocine-2,11(3H)-dione] is 650000 M⁻¹ s⁻¹; for `C=CC(=O)N1CC(c2cccc(CN3C[C@H]4CC(=O)N(c5cc(C(F)(F)F)cc(C)n5)[C@@H]4C(=O)N(C)c4cccc(F)c43)n2)C1` [Example 128, (3aR,11aS)-5-((6-(1-acryloylazetidin-3-yl)pyridin-2-yl)methyl)-6-fluoro-10-methyl-1-(6-methyl-4-(trifluoromethyl)pyridin-2-yl)-1,3a,4,5,10,11a-hexahydro-2H-benzo[b]pyrrolo[2,3-f][1,4]diazocine-2,11(3H)-dione] it is 660000 M⁻¹ s⁻¹; for `C=CC(=O)N1CC(c2nccc(CN3C[C@H]4CC(=O)N(c5cc(C(F)(F)F)cc(C)n5)[C@@H]4C(=O)N(C)c4cccc(F)c43)n2)C1` [Example 129, (3aR,11aS)-5-((2-(1-acryloylazetidin-3-yl)pyrimidin-4-yl)methyl)-6-fluoro-10-methyl-1-(6-methyl-4-(trifluoromethyl)pyridin-2-yl)-1,3a,4,5,10,11a-hexahydro-2H-benzo[b]pyrrolo[2,3-f][1,4]diazocine-2,11(3H)-dione] it is 400000 M⁻¹ s⁻¹. With `C=CC(=O)N1Cc2ccc(CN3C[C@H]4CC(=O)N(c5cc(C(F)(F)F)cc(C)n5)[C@@H]4C(=O)N(C)c4cccc(F)c43)cc2C1` [Example 130, (3aR,11aS)-5-((2-acryloylisoindolin-5-yl)methyl)-6-fluoro-10-methyl-1-(6-methyl-4-(trifluoromethyl)pyridin-2-yl)-1,3a,4,5,10,11a-hexahydro-2H-benzo[b]pyrrolo[2,3-f][1,4]diazocine-2,11(3H)-dione] the figure was 710000 M⁻¹ s⁻¹. On to `C=CC(=O)N1CCc2cc(CN3C[C@H]4CC(=O)N(c5cc(C(F)(F)F)cc(C)n5)[C@@H]4C(=O)N(C)c4cccc(F)c43)ccc2C1` [Example 131, (3aR,11aS)-5-((2-acryloyl-1,2,3,4-tetrahydoisoquinolin-6-yl)methyl)-6-fluoro-10-methyl-1-(6-methyl-4-(trifluoromethyl)pyridin-2-yl)-1,3a,4,5,10,11a-hexahydro-2H-benzo[b]pyrrolo[2,3-f][1,4]diazocine-2,11(3H)-dione], for which the Kinact/Kl turned out to be 530000 M⁻¹ s⁻¹. `C=CC(=O)N1CCn2cc(CN3C[C@H]4CC(=O)N(c5cc(C(F)(F)F)cc(C)n5)[C@@H]4C(=O)N(C)c4cccc(F)c43)nc2C1` [Example 132, (3aR,11aS)-5-((7-acryloyl-5,6,7,8-tetrahydroimidazo[1,2-a]pyrazin-2-yl)methyl)-6-fluoro-10-methyl-1-(6-methyl-4-(trifluoromethyl)pyridin-2-yl)-1,3a,4,5,10,11a-hexahydro-2H-benzo[b]pyrrolo[2,3-f][1,4]diazocine-2,11(3H)-dione] returned a Kinact/Kl of 1.86e+06 M⁻¹ s⁻¹. The figure for `C=CC(=O)N1CCn2nc(CN3C[C@H]4CC(=O)N(c5cc(C(F)(F)F)cc(C)n5)[C@@H]4C(=O)N(C)c4cccc(F)c43)nc2C1` [Example 133, (3aR,11aS)-5-((7-acryloyl-5,6,7,8-tetrahydro-[1,2,4]triazolo[1,5-a]pyrazin-2-yl)methyl)-6-fluoro-10-methyl-1-(6-methyl-4-(trifluoromethyl)pyridin-2-yl)-1,3a,4,5,10,11a-hexahydro-2H-benzo[b]pyrrolo[2,3-f][1,4]diazocine-2,11(3H)-dione] is 1.7e+06 M⁻¹ s⁻¹; for `C=CC(=O)N1CCn2c(nnc2CN2C[C@H]3CC(=O)N(c4cc(C(F)(F)F)cc(C)n4)[C@@H]3C(=O)N(C)c3cccc(F)c32)C1` [Example 134, (3aR,11aS)-5-((7-acryloyl-5,6,7,8-tetrahydro-[1,2,4]triazolo[4,3-a]pyrazin-3-yl)methyl)-6-fluoro-10-methyl-1-(6-methyl-4-(trifluoromethyl)pyridin-2-yl)-1,3a,4,5,10,11a-hexahydro-2H-benzo[b]pyrrolo[2,3-f][1,4]diazocine-2,11(3H)-dione] it is 62000 M⁻¹ s⁻¹; for `C=CC(=O)N1CCC(n2cnc(CN3C[C@H]4CC(=O)N(c5cc(C(F)(F)F)cc(C)n5)[C@@H]4C(=O)N(C)c4cccc(Cl)c43)n2)CC1` [Example 135, (3aR,11aS)-5-((1-(1-acryloylpiperidin-4-yl)-1H-1,2,4-triazol-3-yl)methyl)-6-chloro-10-methyl-1-(6-methyl-4-(trifluoromethyl)pyridin-2-yl)-1,3a,4,5,10,11a-hexahydro-2H-benzo[b]pyrrolo[2,3-f][1,4]diazocine-2,11(3H)-dione] it is 2e+06 M⁻¹ s⁻¹. With `C=CC(=O)N1CCn2cc(CN3C[C@H]4CC(=O)N(c5cc(C(F)(F)F)cc(C)n5)[C@@H]4C(=O)N(C)c4cccc(Cl)c43)nc2C1` [Example 136, (3aR,11aS)-5-((7-acryloyl-5,6,7,8-tetrahydroimidazo[1,2-a]pyrazin-2-yl)methyl)-6-chloro-10-methyl-1-(6-methyl-4-(trifluoromethyl)pyridin-2-yl)-1,3a,4,5,10,11a-hexahydro-2H-benzo[b]pyrrolo[2,1-f][1,4]diazocine-2,11(3H)-dione] the figure was 6.47e+06 M⁻¹ s⁻¹; with `C=CC(=O)N1CC(C)(N2CCC(CN3C[C@H]4CC(=O)N(c5cc(C(F)(F)F)cc(C)n5)[C@@H]4C(=O)N(C)c4cccc(Cl)c43)CC2)C1` [Example 137, (3aR,11aS)-5-((1-(1-acryloyl-3-methylazetidin-3-yl)piperidin-4-yl)methyl)-6-chloro-10-methyl-1-(6-methyl-4-(trifluoromethyl)pyridin-2-yl)-1,3a,4,5,10,11a-hexahydro-2H-benzo[b]pyrrolo[2,3-f][1,4]diazocine-2,11(3H)-dione], 980000 M⁻¹ s⁻¹; with `C=CC(=O)N1CC(N(C)CCCN2C[C@H]3CC(=O)N(c4cc(C(F)(F)F)cc(C)n4)[C@@H]3C(=O)N(C)c3cccc(Cl)c32)C1` [Example 138, (3aR,11aS)-5-(3-((1-acryloylazetidin-3-yl)(methyl)amino)propyl)-6-chloro-10-methyl-1-(6-methyl-4-(trifluoromethyl)pyridin-2-yl)-1,3a,4,5,10,11a-hexahydro-2H-benzo[b]pyrrolo[2,3-f][1,4]diazocine-2,11(3H)-dione], 1.08e+06 M⁻¹ s⁻¹.
